Assay results: patent publication US12195427B2, “MASP-2 inhibitors and methods of use” (priority 2018, dated 2025)
Counter-ions that a name gives are not always drawn.

Biological target: MASP-2 CCP2-SP (Homo sapiens (Human), UniProt O00187)
Test: MASP-2 co-crystallization, X-ray crystallography and structure analysis (H-bonds, van der Waals contacts);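 on Ligand-pharmacophore element distance, pharmacophore element C2: distance from averaged pharmacophore element to bound ligand; missing value means element absent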;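 on Ligand-pharmacophore element distance, pharmacophore element C3: distance from averaged pharmacophore element to bound ligand; missing value means element absent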;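 on Ligand-pharmacophore element distance, pharmacophore element C4: distance from averaged pharmacophore element to bound ligand; missing value means element absent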;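 on Ligand-pharmacophore element distance, pharmacophore element C5: distance from averaged pharmacophore element to bound ligand; missing value means element absent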
Design: van der Waals contact distance, MASP-2 HIS 483 atom CD2 / van der Waals contact distance, MASP-2 HIS 483 atom NE2 / van der Waals contact distance, SER 654 C to compound atom / van der Waals contact distance, SER 654 O to compound atom / van der Waals contact distance, TRP 655 C to compound atom / van der Waals contact distance, MASP-2 GLY 528 atom CA / van der Waals contact distance TRP 655 atom CZ3 / van der Waals contact distance TRP 655 atom N / van der Waals contact distance TRP 655 atom CE3 / van der Waals contact distance GLY 656 atom C / van der Waals contact distance GLY 656 atom CA / van der Waals contact distance GLY 656 atom O / van der Waals contact distance, MASP-2 TYR 607 atom CD1 / van der Waals contact distance, MASP-2 PRO 606 atom O / d(C3,CA1) / d(CA1,N1)2 / d(H4,O1) / d(H4,O2) / d(O1,O2) / d(CA1,O2) / d(CA6,O1) / d(CA6,O2) / d(CA1,C5) / d(O2,H3) / d(N2,C2) / d(CA5,N2) / d(N2,C4) / d(N2,C6) / d(N2,CA3) / d(N2,O3) / d(O4,H2): unit not given beside the values
Conditions: for H-bond distance to MASP-2 ASP 627 atom OD2: ASP 627 OD2; for H-bond distance to MASP-2 SER 628 atom O: SER 628 O; for Ligand-pharmacophore element distance, pharmacophore element C2 / Ligand-pharmacophore element distance, pharmacophore element C3 / Ligand-pharmacophore element distance, pharmacophore element C4 / Ligand-pharmacophore element distance, pharmacophore element C5 / Ligand-pharmacophore element distance, pharmacophore element C6 / Ligand-pharmacophore element distance, pharmacophore element C7 / Ligand-pharmacophore element distance, pharmacophore element CA1 / Ligand-pharmacophore element distance, pharmacophore element CA2 / Ligand-pharmacophore element distance, pharmacophore element CA3 / Ligand-pharmacophore element distance, pharmacophore element CA4 / Ligand-pharmacophore element distance, pharmacophore element CA5 / Ligand-pharmacophore element distance, pharmacophore element CA6: Table A4-1
Summary of the method: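 Human MASP-2 CCP2-SP (± 6His) expressed in E. coli and crystallized; crystals soaked in crystallization solution containing inhibitor, cryoprotected with 20% glycerol or frozen directly. Synchrotron data at 1.0 wavelength; molecular replacement from 1Q3X, partial refinement; one ligand pose analyzed; LigPlot+ contacts may include H-bonds.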

[1] = Table A2 section before Table A2-8
[2] = Table A5-1 pharmacophore: distance between elements, S2/S1 region
[3] = Table A5-2 pharmacophore distance, S3/S4 region
[4] = Table A7-1, between pharmacophore elements of the bound compound
[5] = Table A7-2, between pharmacophore elements of the bound compound

Sequence of MASP-2 CCP2-SP (O00187 445-686): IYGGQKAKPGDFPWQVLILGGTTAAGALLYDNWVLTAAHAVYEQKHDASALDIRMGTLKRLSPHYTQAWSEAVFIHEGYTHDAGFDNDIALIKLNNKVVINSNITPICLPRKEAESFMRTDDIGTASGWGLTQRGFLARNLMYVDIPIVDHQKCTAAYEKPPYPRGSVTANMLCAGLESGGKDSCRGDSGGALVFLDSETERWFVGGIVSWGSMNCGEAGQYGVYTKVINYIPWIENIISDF
Sequence of MASP-2 CCP2-SP (O00187 364-432 partner): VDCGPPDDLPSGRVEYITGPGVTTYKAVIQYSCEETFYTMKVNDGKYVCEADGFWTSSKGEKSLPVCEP

Cc1nc(N)ccc1CNC(=O)[C@H](C)NC(=O)[C@H]1C[C@H](Cc2cc(-c3ccccc3)cs2)CN1 [compound 1399, (2R,4R)—N—((S)-1-(((6-Amino-2-methylpyridin-3-yl)methyl)amino)-1-oxopropan-2-yl)-4-((4-phenylthiophen-2-yl)methyl)pyrrolidine-2-carboxamide Dihydrochloride]
H-bond distance to MASP-2 ASP 627 atom OD2 (Table A1 (H-Bonds)): 3.26
H-bond distance to MASP-2 GLY 656 atom N (Table A1 (H-Bonds), GLY 656 N): 3.21
H-bond distance to MASP-2 GLY 656 atom O (Table A1 (H-Bonds), GLY 656 O): 2.75
H-bond distance to MASP-2 SER 628 atom O (Table A1 (H-Bonds)): 3.15
H-bond distance to MASP-2 SER 654 atom O (Table A1 (H-Bonds), SER 654 O): 3.04
H-bond distance to MASP-2 SER 657 atom O (Table A1 (H-Bonds), SER 657 O): 2.86
van der Waals contact distance, MASP-2 amino acid atom to compound atom (Table A2): 3.7
van der Waals contact distance, MASP-2 HIS 483 atom CD2 (Table A2-1): 3.72
van der Waals contact distance, MASP-2 HIS 483 atom NE2 (Table A2-1): 3.6
van der Waals contact distance, MASP-2 PHE 529 atom CD2 (Table A2-3): 3.85
van der Waals contact distance, MASP-2 PHE 529 atom CE2 (Table A2-3): 3.7
van der Waals contact distance, MASP-2 amino acid atom to compound atom (Table A2-7: SER 628 (CB, O, OG)): 3.61
van der Waals contact distance, VAL 653 CG1 to compound atom (Table A2-11): 3.32
van der Waals contact distance, TRP 655 CA to compound atom (Table A2-12): 3.43
van der Waals contact distance TRP 655 atom CZ3 (Table A2-13, MASP-2 TRP 655 CZ3): 3.42
van der Waals contact distance, MASP-2 amino acid atom to compound atom [1]: 3.81
Ligand-pharmacophore element distance, pharmacophore element C2: 0
Ligand-pharmacophore element distance, pharmacophore element C3: 0.14
Ligand-pharmacophore element distance, pharmacophore element C4: 0
Ligand-pharmacophore element distance, pharmacophore element C5: 0
Ligand-pharmacophore element distance, pharmacophore element C6: 0
Ligand-pharmacophore element distance, pharmacophore element C7: 0
Ligand-pharmacophore element distance, pharmacophore element CA1: 0.59
Ligand-pharmacophore element distance, pharmacophore element CA2: 0.85
Ligand-pharmacophore element distance, pharmacophore element CA3: 0
Ligand-pharmacophore element distance, pharmacophore element CA4: 2.39
Ligand-pharmacophore element distance, pharmacophore element CA5: 0
Ligand-pharmacophore element distance, pharmacophore element CA6: 0
d(C3,CA1) [2]: 2.86
d(CA1,N1)2 [2]: 1.38
d(CA1,O1) [2]: 4.40
d(CA1,O2) [2]: 3.92
d(H4,O1) [2]: 4.40
d(H4,O2) [2]: 3.82
d(O1,O2) [2]: 3.33
d(N2,CA2) [3]: 5.96
d(O2,H3) [3]: 4.09
d(O2,N2) [3]: 2.67
a(C3, CA1, O1) (Table A6-1 pharmacophore angle): 149.86
a(CA1, O1, O2) (Table A6-1 pharmacophore angle): 105.80
a(O1, O2, H4) (Table A6-1 pharmacophore angle): 132.84
a(N1, CA1, O1) b) (Table A6-1 pharmacophore angle, Methyl-amino-pyridine compounds): 173.87
a(O1, O2, H3) (Table A6-2 pharmacophore angle): 145.77
a(O1, O2, N2) (Table A6-2 pharmacophore angle): 143.45
a(O2, N2, CA2) (Table A6-2 pharmacophore angle): 157.06
Pharmacophore torsion angle a(C3, CA1, O1, H4) [4]: 24.20
Pharmacophore torsion angle a(H4, O1, O2, H3) [4]: 50.25
Pharmacophore torsion angle a(H4, O1, O2, N2) [4]: 142.63
Pharmacophore torsion angle a(N1, CA1, O1, H4) [4]: 0.87
Pharmacophore torsion angle a(O1, H4, O2, CA1) [4]: −83.35
Pharmacophore torsion angle a(O1, O2, N2, CA2) [5]: 126.87
Pharmacophore torsion angle a(O1, O2, N2, CA4) [5]: 113.10

C[C@H](NC(=O)[C@H]1C[C@@H](c2ccccc2)CCN1)C(=O)NCc1ccc(N)nc1 (stereo in doubt) [compound 1025]
H-bond distance to MASP-2 ASP 627 atom OD2 (Table A1 (H-Bonds)): 3.11
H-bond distance to MASP-2 SER 628 atom O (Table A1 (H-Bonds)): 2.38
van der Waals contact distance, MASP-2 HIS 483 atom CD2 (Table A2-1): 3.68
van der Waals contact distance, MASP-2 HIS 483 atom CE1 (Table A2-1): 3.81
van der Waals contact distance, MASP-2 PHE 529 atom CZ (Table A2-3): 3.88
van der Waals contact distance, SER 654 O to compound atom (Table A2-12): 3.51
van der Waals contact distance, TRP 655 CA to compound atom (Table A2-12): 3.68
van der Waals contact distance, MASP-2 amino acid atom to compound atom [1]: 3.84

CC(NC(=O)C(CCc1ccccc1)NCCCc1ccc(O)cc1)C(=O)NCc1ccc(C(=N)N)cc1.Cl.Cl (stereo not drawn) [1145_A]
Ligand-pharmacophore element distance, pharmacophore element C2: 0
Ligand-pharmacophore element distance, pharmacophore element C3: 0
Ligand-pharmacophore element distance, pharmacophore element C4: 0
Ligand-pharmacophore element distance, pharmacophore element C5: 0
Ligand-pharmacophore element distance, pharmacophore element C6: 0
Ligand-pharmacophore element distance, pharmacophore element C7: 0
Ligand-pharmacophore element distance, pharmacophore element CA1: 0.47
Ligand-pharmacophore element distance, pharmacophore element CA2: 0.41
Ligand-pharmacophore element distance, pharmacophore element CA3: 1.22
Ligand-pharmacophore element distance, pharmacophore element CA4: 0
Ligand-pharmacophore element distance, pharmacophore element CA5: 0
Ligand-pharmacophore element distance, pharmacophore element CA6: 0
d(CA1,N1) [2]: 3.54
d(CA1,O1) [2]: 4.42
d(CA1,O2) [2]: 4.42
d(H4,O1) [2]: 4.89
d(H4,O2) [2]: 4.48
d(O1,O2) [2]: 3.28
d(N2,CA2) [3]: 5.91
d(N2,CA3) [3]: 5.59
d(N2,H1) [3]: 8.64
d(N2,O3) [3]: 7.97
d(O2,H3) [3]: 5.36
d(O2,N2) [3]: 2.77
a(CA1, O1, O2) (Table A6-1 pharmacophore angle): 111.73
a(O1, O2, H4) (Table A6-1 pharmacophore angle): 139.31
A(N1, CA1, O1) a) (Table A6-1 pharmacophore angle, all compounds with protonatable center N1 except Methyl-amino-pyridine): 162.28
a(O1, O2, H3) (Table A6-2 pharmacophore angle): 150.25
a(O1, O2, N2) (Table A6-2 pharmacophore angle): 136.24
a(O2, N2, CA2) (Table A6-2 pharmacophore angle): 153.28
a(O2, N2, CA3) (Table A6-2 pharmacophore angle): 161.48
a(O2, N2, H1) (Table A6-2 pharmacophore angle): 168.81
a(O2, N2, O3) (Table A6-2 pharmacophore angle): 168.41
Pharmacophore torsion angle a(H4, O1, O2, H3) [4]: 48.71
Pharmacophore torsion angle a(H4, O1, O2, N2) [4]: 124.15
Pharmacophore torsion angle a(N1, CA1, O2, H4) [4]: −128.41
Pharmacophore torsion angle a(O1, H4, O2, CA1) [4]: −59.90
Pharmacophore torsion angle a(O1, O2, N2, CA2) [5]: 140.87
Pharmacophore torsion angle a(O1, O2, N2, CA3) [5]: −15.65
Pharmacophore torsion angle a(O1, O2, N2, H1) [5]: −17.10
Pharmacophore torsion angle a(O1, O2, N2, O3) [5]: −10.98

Cc1c(/N=C/c2ccc(OC(=O)c3ccco3)cc2)c(=O)n(-c2ccccc2)n1C [compound 34]
van der Waals contact distance GLY 656 atom CA (Table A2-13, MASP-2 GLY 656 CA): 3.72
